# Experimental data from US8741854B2, “Compositions and methods for feeding poultry” (Bioenergy, Inc., priority 2009, dated 2014).
# Test system: male chicks of a commercial breed, "Cobb 500"
# Experiment: D-ribose supplementation of broiler chicks raised on a challenged rapid growth regimen
# Assay type: in vivo, chicken (broiler chicks)
# Details: D-ribose in drinking water, about 200 mg/kg body weight/day
smiles,measurement,setting,value
O=C[C@H](O)[C@H](O)[C@H](O)CO [D-ribose],observed cardiomyopathic incidences,"days 0 to 43, challenged environment, approximately 5200 feet elevation, control 27.6%",15.1%
same,average weight and feed conversion versus control,"birds weighed days 35 and 43, FIG. 1","slightly better in the control group, but the differences were not statistically significant"
